# Experimental data published in patent publication US20240125770A1, “CELL ANALYSIS” (University of Dundee, priority 2021, published 2024).
# Entries after “also recorded” stand apart in the source; their conditions may differ.
# Test system: human iPSC lines
# Experiment: Cell painting assay (image-based cell phenotyping) on a panel of human iPSC lines from different donors
# Settings: 24 hrs; for Uniformity or variation of response between human iPSC lines in UMAP embedding: panel of human iPSC lines from different donors, concentration of Table 2 (5 μM; fenbendazole 3.34 μM); for UMAP embedding of cell painting features: cluster: panel of HipSci human iPSC lines, clusters: 1 DMSO and weak responders, 2 Atorvastatin, Simvastatin, Fluphenazine, 3 Afatinib, Erlotinib, Everolimus and Rapamycin, 4 DNA damaging agents and topoisomerase inhibitors, 5 non-microtubule targeting cytotoxics, 6 Microtubule polymerization effectors; for Response to drug in UMAP embedding, cell lines paim3 and pelm1: paim3 and pelm1 lines (FIG. 7 legend prints pelm3); for Changes of features in the cell nucleus across cell lines: etoposide 1.7 μM, irinotecan 5 μM, nuclear painting probes
# Protocol: 384-well tissue culture plates (CellCarrier-384 Ultra Microplates, Perkin Elmer 6057300) were coated with human plasma fibronectin (Merck Millipore FC010) at a concentration of 5 μg/cm^2. Cells were passaged as described above with TrypLE Select, counted and seeded on the fibronectin coated wells at a concentration of 3×10^4/cm^2. Cell line plating was in rows, with three wells per condition for each cell line. Cells were incubated for 24 hrs prior to drug treatment, followed by a further 24 hrs incubation before final fixation and staining and high content imaging. Antibody staining of a separate 384-well plate at 48 hrs confirmed that pluripotency was maintained at 48 hrs.
# All fixation, permeabilisation and immunostaining were performed at room temperature. Paraformaldehyde 8% in PBS (PFA, Sigma F8775) was added to an equal volume of medium for a final concentration of 4% and incubated for 15 min. Fixed cells were washed in PBS and permeabilised with 0.1% v/v Triton-X100 (Sigma) for 15 min. Following permeabilisation, cells were washed in TBS and stained with DAPI (Thermo Fisher D1306), SYTO 14 (Thermo Fisher S7576), Concanavalin A (Thermo Fisher C11252), Phalloidin Alexa (Thermo Fisher A12381), and WGA (Thermo Fisher W11262) for 1 hr. Mitotracker (Thermo Fisher M22426) staining was performed in live cells with a 30 min incubation at 37° C. prior to fixation. Cell fixation, permeabilisation, staining and washing steps were performed using automated liquid handling systems (405 plate washer, BioTek—Tempest, Formulatrix).
# Drug dosing on 384-well plates was performed using an Echo acoustic liquid handler and corresponding software (Labcyte). Screened compounds were selected from the appropriate chemical library plates containing Cloud library (Enamine) and NPSC Control library. For etoposide drug dosing was performed at 1.7 μM. […]
# All imaging data were collected on an InCell 2200 high content imager, with a 20× lens and a Quad2 multichroic mirror (GE, Issaquah, WA).
# Raw images were imported into OMERO Plus (Glencoe Software, Inc., (9)) and then processed using a custom pipeline in CellProfiler (8) which segmented nuclei, cytoplasm, golgi and cortical protrusions and calculated a range of defined features. All further steps were executed using the Pandas Python library (10). Features for each plate were normalised by the median of features in DMSO control for that plate. Features whose coefficient of variation was greater than 0.50 were removed from further analysis (typically these were Zernike Phase features). We further removed all features with |Spearman coefficient|>0.98. Z-normalised data were then visualised using principal component analysis (PCA) and Uniform Manifold Approximation and Projection (UMAP (11)). For PCA, we calculated the first 15 principal components and variance included in the first two principal components was 77.1%. UMAP parameters were n_neighbours=15, mindist=0.01 and a cosine metric for scaling distance between points. GO enrichment analysis was carried out using WebGestalt (WEB-based Gene SeT AnaLysis Toolkit) (12)
# We next used a selection of human iPSCs from the HipSci cohort to test our ability to detect differential effects of FDA-approved drugs, using an image-based cell phenotyping assay. All selected human iPSC lines were previously subjected to whole genome sequencing (https://www.hipsci.org) and the genome data are publicly available. Cells from selected human iPSC lines (Table 1), were grown in 384 well plates, treated with selected compounds (drugs and concentrations used are shown in Table 2), for 24 hrs, then fixed and stained with cell painting markers (see Materials and Methods). Images were recorded in an automated, plate-based imager, then imported into OMERO (9). Images were segmented with respect to the features, ‘nuclei’, ‘cytoplasm’, ‘Golgi’ and ‘protrusions’, using a custom CellProfiler pipeline (13) and image features were then calculated (˜300 features per cell compartment). […]
smiles,measurement,setting,value
O=c1[nH]cc(F)c(=O)[nH]1 [5-FU],Uniformity or variation of response between human iPSC lines in UMAP embedding,,"Most cells responded to 5-FU (cluster 1, red, FIG. 3A), but several showed a response indistinguishable from DMSO"
CC(C)c1c(C(=O)Nc2ccccc2)c(-c2ccccc2)c(-c2ccc(F)cc2)n1CC[C@@H](O)C[C@@H](O)CC(=O)O [Atorvastatin],Magnitude of response: heatmap of deviations of all features from DMSO,"all cell lines, before Z normalization, 5 μM, FIG. 5A",the magnitude of the responses differ between the different cell lines
same,UMAP embedding of cell painting features: cluster,5 μM,cluster 2
same,Uniformity or variation of response between human iPSC lines in UMAP embedding,,tight clustering in UMAP embedding
C#Cc1cccc(Nc2ncnc3cc(OCCOC)c(OCCOC)cc23)c1 [Erlotinib],"Response to drug in UMAP embedding, all other / majority of human iPSC lines","human iPSC lines other than paim3 and pelm1, 5 μM",resembles rapamycin and everolimus; also recorded: clustered with rapamycin and everolimus
same,"Response to drug in UMAP embedding, cell lines paim3 and pelm1",5 μM,afatinib cluster
same,"Response to drug in UMAP embedding, cell lines paim3 and pelm1","5 μM, listed as erlotinib",clustered with afatinib
same,Uniformity or variation of response between human iPSC lines in UMAP embedding,,differential response of some lines
same,"Response to drug in UMAP embedding, cell line voce2","voce2 line (along with the majority of hiPSCs), 5 μM, FIG. 7",Erlotinib cluster
same,"Response to drug in UMAP embedding, cell line zaie1","zaie1 line, 5 μM, FIG. 7",weak responders group
COc1cc([C@@H]2c3cc4c(cc3[C@@H](O[C@@H]3O[C@@H]5CO[C@@H](C)O[C@H]5[C@H](O)[C@H]3O)[C@H]3COC(=O)[C@H]23)OCO4)cc(OC)c1O [Etoposide],Changes of features in the cell nucleus across cell lines,,cause similar changes in multiple cell lines
CO[C@H]1C[C@@H]2CC[C@@H](C)[C@@](O)(O2)C(=O)C(=O)N2CCCC[C@H]2C(=O)O[C@H]([C@H](C)C[C@@H]2CC[C@@H](OCCO)[C@H](OC)C2)CC(=O)[C@H](C)/C=C(\C)[C@@H](O)[C@@H](OC)C(=O)[C@H](C)C[C@H](C)/C=C/C=C/C=C/1C [Everolimus],UMAP embedding of cell painting features: cluster,5 μM,cluster 3
COC(=O)Nc1nc2ccc(Sc3ccccc3)cc2[nH]1 [Fenbendazole],Uniformity or variation of response between human iPSC lines in UMAP embedding,,splitting of clusters
CCc1c2c(nc3ccc(OC(=O)N4CCC(N5CCCCC5)CC4)cc13)-c1cc3c(c(=O)n1C2)COC(=O)[C@]3(O)CC [Irinotecan],Changes of features in the cell nucleus across cell lines,,cause similar changes in multiple cell lines
O=C(CCCCCCC(=O)Nc1ccccc1)NO [Vorinostat],Uniformity or variation of response between human iPSC lines in UMAP embedding,,splitting of clusters
